ChEMBL document CHEMBL1148194, “Dysinosins B-D, inhibitors of factor VIIa and thrombin from the Australian sponge Lamellodysidea chlorea” (J Nat Prod, 2004)

Tests used:
Coagulation factor VII = target: T1, Coagulation factor VII (Homo sapiens, UniProt P08709); test: Inhibition of factor 7a by spectrophotometric assay
T1 sequence (P08709 whole entry): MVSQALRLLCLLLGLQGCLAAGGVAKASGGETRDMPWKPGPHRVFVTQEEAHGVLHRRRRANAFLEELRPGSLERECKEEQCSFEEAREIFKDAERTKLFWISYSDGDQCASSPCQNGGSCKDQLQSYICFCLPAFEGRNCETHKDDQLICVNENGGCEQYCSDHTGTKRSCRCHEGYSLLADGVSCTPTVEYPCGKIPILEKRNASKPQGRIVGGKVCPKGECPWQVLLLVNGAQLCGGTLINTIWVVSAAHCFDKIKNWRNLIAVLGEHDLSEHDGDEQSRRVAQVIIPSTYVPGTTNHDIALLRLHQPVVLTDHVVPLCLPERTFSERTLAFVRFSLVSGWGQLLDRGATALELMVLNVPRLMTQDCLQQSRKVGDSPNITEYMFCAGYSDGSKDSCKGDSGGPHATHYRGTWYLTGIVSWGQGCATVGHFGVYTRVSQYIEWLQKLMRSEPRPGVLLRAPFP

Prothrombin = Prothrombin (Homo sapiens, UniProt P00734); test: Inhibition of thrombin by spectrophotometric assay

Ki (Coagulation factor VII)	Ki (Prothrombin)	Compound
108 nM	452 nM	CO[C@H](COS(=O)(=O)[O-])C(=O)N[C@H](CC(C)C)C(=O)N1[C@H](C(=O)NCCC2=CC[N+](=C(N)N)C2)C[C@@H]2C[C@H](O)[C@@H](O)C[C@@H]21 [DYSINOSIN A]
90 nM	170 nM	CO[C@H](COS(=O)(=O)[O-])C(=O)N[C@H](C(=O)N1[C@H](C(=O)NCCC2=CC[N+](=C(N)N)C2)C[C@@H]2C[C@H](O)[C@@H](O[C@H]3O[C@H](CO)[C@@H](O)[C@H](O)[C@H]3O)C[C@@H]21)C(C)C [DYSINOSIN B]
124 nM	550 nM	CO[C@H](COS(=O)(=O)[O-])C(=O)N[C@H](C(=O)N1[C@H](C(=O)NCCC2=CC[N+](=C(N)N)C2)C[C@@H]2C[C@H](O)[C@@H](O)C[C@@H]21)C(C)C [DYSINOSIN C]
1320 nM	> 5100 nM	CO[C@H](CO)C(=O)N[C@H](C(=O)N1[C@H](C(=O)NCCC2=CC[N+](=C(N)N)C2)C[C@@H]2C[C@H](O)[C@@H](O)C[C@@H]21)C(C)C [DYSINOSIN D]
